Test results from ChEMBL document CHEMBL3046471, “Evaluation of the anti-inflammatory activity of some pyrrolo[2,3-d]pyrimidine derivatives” (2013).

Legend:
Type in all cases: functional
Rattus norvegicus [1] = assay: Anti-inflammatory activity in sc dosed Sprague-Dawley Rattus norvegicus (rat) assessed as inhibition of carrageenan-induced paw edema administered at 1 hr prior to carrageenan injection measured at 1 hr post-carrageenan challenge by water plethysmometer
Rattus norvegicus [2] = assay: Anti-inflammatory activity in sc dosed Sprague-Dawley Rattus norvegicus (rat) assessed as inhibition of carrageenan-induced paw edema administered at 1 hr prior to carrageenan injection measured at 4 hr post-carrageenan challenge by water plethysmometer
Rattus norvegicus [3] = assay: Anti-inflammatory activity in sc dosed Sprague-Dawley Rattus norvegicus (rat) assessed as inhibition of carrageenan-induced paw edema administered at 1 hr prior to carrageenan injection measured at 2 hr post-carrageenan challenge by water plethysmometer
Rattus norvegicus [4] = assay: Anti-inflammatory activity in sc dosed Sprague-Dawley Rattus norvegicus (rat) assessed as inhibition of carrageenan-induced paw edema administered at 1 hr prior to carrageenan injection measured at 3 hr post-carrageenan challenge by water plethysmometer
Rattus norvegicus [5] = assay: Anti-inflammatory activity in Sprague-Dawley Rattus norvegicus (rat) assessed as inhibition of carrageenan-induced paw edema at 70 mg/kg, sc administered at 1 hr prior to carrageenan injection measured at 3 hr post-carrageenan challenge by water plethysmometer; settings: route subcutaneous
Rattus norvegicus [6] = assay: Anti-inflammatory activity in Sprague-Dawley Rattus norvegicus (rat) assessed as inhibition of carrageenan-induced paw edema at 70 mg/kg, sc administered at 1 hr prior to carrageenan injection measured at 4 hr post-carrageenan challenge by water plethysmometer; settings: route subcutaneous
Rattus norvegicus [7] = assay: Anti-inflammatory activity in Sprague-Dawley Rattus norvegicus (rat) assessed as inhibition of carrageenan-induced paw edema at 70 mg/kg, sc administered at 1 hr prior to carrageenan injection measured at 2 hr post-carrageenan challenge by water plethysmometer; settings: route subcutaneous
Rattus norvegicus [8] = assay: Anti-inflammatory activity in Sprague-Dawley Rattus norvegicus (rat) assessed as inhibition of carrageenan-induced paw edema administered at 70 mg/kg, sc at 1 hr prior to carrageenan injection measured at 1 hr post-carrageenan challenge by water plethysmometer; settings: route subcutaneous

SMILES: Cc1ccc(-n2c(-c3ccccc3)c(-c3ccccc3)c3c2ncn2cnnc32)cc1
- inhibition (INH) (Rattus norvegicus [1]): 0%
- inhibition (INH) (Rattus norvegicus [2]): 44.44%
- inhibition (INH) (Rattus norvegicus [3]): 0%
- inhibition (INH) (Rattus norvegicus [4]): 15.07%

SMILES: Cc1ccc(-n2c(-c3ccccc3)c(-c3ccccc3)c3c2ncn2c(C)nnc32)cc1
- inhibition (INH) (Rattus norvegicus [1]): 7.39%
- inhibition (INH) (Rattus norvegicus [2]): 23.81%
- inhibition (INH) (Rattus norvegicus [3]): 10%
- inhibition (INH) (Rattus norvegicus [4]): 16.91%

SMILES: COc1ccc(-n2cc(-c3ccccc3)c3c(-n4nc(C)cc4C)ncnc32)cc1
- inhibition (INH) (Rattus norvegicus [1]): 7.82%
- inhibition (INH) (Rattus norvegicus [2]): 61.9%
- inhibition (INH) (Rattus norvegicus [3]): 23.85%
- inhibition (INH) (Rattus norvegicus [4]): 35.66%

SMILES: Cc1ccc(-n2c(-c3ccccc3)c(-c3ccccc3)c3c(Cl)ncnc32)cc1
- inhibition (INH) (Rattus norvegicus [1]): 3.92%
- inhibition (INH) (Rattus norvegicus [2]): 28.59%
- inhibition (INH) (Rattus norvegicus [3]): 10%
- inhibition (INH) (Rattus norvegicus [4]): 31.43%

SMILES: COc1ccc(-n2c(-c3ccccc3)c(-c3ccccc3)c3c(Cl)ncnc32)cc1
- inhibition (INH) (Rattus norvegicus [1]): 0%
- inhibition (INH) (Rattus norvegicus [2]): 45.39%
- inhibition (INH) (Rattus norvegicus [3]): 0%
- inhibition (INH) (Rattus norvegicus [4]): 33.64%

SMILES: Cc1ccc(-n2cc(-c3ccccc3)c3c(Cl)ncnc32)cc1
- inhibition (INH) (Rattus norvegicus [1]): 1.3%
- inhibition (INH) (Rattus norvegicus [2]): 18.25%
- inhibition (INH) (Rattus norvegicus [3]): 1.92%
- inhibition (INH) (Rattus norvegicus [4]): 31.25%

SMILES: COc1ccc(-n2cc(-c3ccccc3)c3c(Cl)ncnc32)cc1
- inhibition (INH) (Rattus norvegicus [1]): 13.4%
- inhibition (INH) (Rattus norvegicus [2]): 18.89%
- inhibition (INH) (Rattus norvegicus [3]): 17.3%
- inhibition (INH) (Rattus norvegicus [4]): 32.9%

SMILES: Cc1ccc(-n2c(-c3ccccc3)c(-c3ccccc3)c3c(NN)ncnc32)cc1
- inhibition (INH) (Rattus norvegicus [1]): 0%
- inhibition (INH) (Rattus norvegicus [2]): 18.57%
- inhibition (INH) (Rattus norvegicus [3]): 0%
- inhibition (INH) (Rattus norvegicus [4]): 29.6%

SMILES: COc1ccc(-n2c(-c3ccccc3)c(-c3ccccc3)c3c(NN)ncnc32)cc1
- inhibition (INH) (Rattus norvegicus [1]): 13.48%
- inhibition (INH) (Rattus norvegicus [2]): 62.38%
- inhibition (INH) (Rattus norvegicus [3]): 16.92%
- inhibition (INH) (Rattus norvegicus [4]): 61.4%

SMILES: Cc1ccc(-n2cc(-c3ccccc3)c3c(NN)ncnc32)cc1
- inhibition (INH) (Rattus norvegicus [1]): 0%
- inhibition (INH) (Rattus norvegicus [2]): 39.21%
- inhibition (INH) (Rattus norvegicus [3]): 0%
- inhibition (INH) (Rattus norvegicus [4]): 45.4%

SMILES: COc1ccc(-n2cc(-c3ccccc3)c3c(NN)ncnc32)cc1
- inhibition (INH) (Rattus norvegicus [1]): 23.04%
- inhibition (INH) (Rattus norvegicus [2]): 50.26%
- inhibition (INH) (Rattus norvegicus [3]): 8.85%
- inhibition (INH) (Rattus norvegicus [4]): 41.73%

SMILES: COc1ccc(-n2c(-c3ccccc3)c(-c3ccccc3)c3c2ncn2cnnc32)cc1
- inhibition (INH) (Rattus norvegicus [1]): 8.69%
- inhibition (INH) (Rattus norvegicus [2]): 47.62%
- inhibition (INH) (Rattus norvegicus [3]): 15.77%
- inhibition (INH) (Rattus norvegicus [4]): 27.94%

SMILES: Cc1ccc(-n2cc(-c3ccccc3)c3c2ncn2cnnc32)cc1
- inhibition (INH) (Rattus norvegicus [1]): 0%
- inhibition (INH) (Rattus norvegicus [2]): 28.57%
- inhibition (INH) (Rattus norvegicus [3]): 0%
- inhibition (INH) (Rattus norvegicus [4]): 10.48%

SMILES: COc1ccc(-n2cc(-c3ccccc3)c3c2ncn2cnnc32)cc1
- inhibition (INH) (Rattus norvegicus [1]): 0%
- inhibition (INH) (Rattus norvegicus [2]): 36.19%
- inhibition (INH) (Rattus norvegicus [3]): 0%
- inhibition (INH) (Rattus norvegicus [4]): 33.46%

SMILES: Cc1ccc(-n2c(-c3ccccc3)c(-c3ccccc3)c3c2ncn2c(=S)[nH]nc32)cc1
- inhibition (INH) (Rattus norvegicus [1]): 0%
- inhibition (INH) (Rattus norvegicus [2]): 23.81%
- inhibition (INH) (Rattus norvegicus [3]): 10.38%
- inhibition (INH) (Rattus norvegicus [4]): 17.27%

SMILES: COc1ccc(-n2c(-c3ccccc3)c(-c3ccccc3)c3c2ncn2c(=S)[nH]nc32)cc1
- inhibition (INH) (Rattus norvegicus [1]): 7.39%
- inhibition (INH) (Rattus norvegicus [2]): 34.6%
- inhibition (INH) (Rattus norvegicus [3]): 20.38%
- inhibition (INH) (Rattus norvegicus [4]): 19.49%

SMILES: Cc1ccc(-n2cc(-c3ccccc3)c3c2ncn2c(=S)[nH]nc32)cc1
- inhibition (INH) (Rattus norvegicus [1]): 3.04%
- inhibition (INH) (Rattus norvegicus [2]): 39.21%
- inhibition (INH) (Rattus norvegicus [3]): 19.23%
- inhibition (INH) (Rattus norvegicus [4]): 33.8%

SMILES: COc1ccc(-n2cc(-c3ccccc3)c3c2ncn2c(=S)[nH]nc32)cc1
- inhibition (INH) (Rattus norvegicus [1]): 0%
- inhibition (INH) (Rattus norvegicus [2]): 47.62%
- inhibition (INH) (Rattus norvegicus [3]): 0%
- inhibition (INH) (Rattus norvegicus [4]): 28.31%

SMILES: COc1ccc(-n2c(-c3ccccc3)c(-c3ccccc3)c3c2ncn2c(C)nnc32)cc1
- inhibition (INH) (Rattus norvegicus [1]): 0%
- inhibition (INH) (Rattus norvegicus [2]): 28.25%
- inhibition (INH) (Rattus norvegicus [3]): 0%
- inhibition (INH) (Rattus norvegicus [4]): 14.15%

SMILES: Cc1ccc(-n2cc(-c3ccccc3)c3c2ncn2c(C)nnc32)cc1
- inhibition (INH) (Rattus norvegicus [1]): 11.74%
- inhibition (INH) (Rattus norvegicus [2]): 32.85%
- inhibition (INH) (Rattus norvegicus [3]): 18.85%
- inhibition (INH) (Rattus norvegicus [4]): 29.5%

SMILES: COc1ccc(-n2cc(-c3ccccc3)c3c2ncn2c(C)nnc32)cc1
- inhibition (INH) (Rattus norvegicus [1]): 15.94%
- inhibition (INH) (Rattus norvegicus [2]): 35.98%
- inhibition (INH) (Rattus norvegicus [3]): 0.5416%
- inhibition (INH) (Rattus norvegicus [4]): 27.8%

SMILES: Cc1ccc(-n2c(-c3ccccc3)c(-c3ccccc3)c3c2ncn2c(=O)[nH]nc32)cc1
- inhibition (INH) (Rattus norvegicus [1]): 0%
- inhibition (INH) (Rattus norvegicus [2]): 42.85%
- inhibition (INH) (Rattus norvegicus [3]): 0%
- inhibition (INH) (Rattus norvegicus [4]): 19.7%

SMILES: COc1ccc(-n2c(-c3ccccc3)c(-c3ccccc3)c3c2ncn2c(=O)[nH]nc32)cc1
- inhibition (INH) (Rattus norvegicus [1]): 1.45%
- inhibition (INH) (Rattus norvegicus [2]): 36.5%
- inhibition (INH) (Rattus norvegicus [3]): 10.38%
- inhibition (INH) (Rattus norvegicus [4]): 18.5%

SMILES: Cc1ccc(-n2c(-c3ccccc3)c(-c3ccccc3)c3c(N/N=C/c4ccccc4)ncnc32)cc1
- inhibition (INH) (Rattus norvegicus [1]): 0%
- inhibition (INH) (Rattus norvegicus [2]): 32.8%
- inhibition (INH) (Rattus norvegicus [3]): 0%
- inhibition (INH) (Rattus norvegicus [4]): 15.44%

SMILES: COc1ccc(-n2c(-c3ccccc3)c(-c3ccccc3)c3c(N/N=C/c4ccccc4)ncnc32)cc1
- inhibition (INH) (Rattus norvegicus [1]): 17.39%
- inhibition (INH) (Rattus norvegicus [2]): 62.96%
- inhibition (INH) (Rattus norvegicus [3]): 32.31%
- inhibition (INH) (Rattus norvegicus [4]): 54.04%

SMILES: Cc1ccc(-n2cc(-c3ccccc3)c3c(N/N=C/c4ccccc4)ncnc32)cc1
- inhibition (INH) (Rattus norvegicus [1]): 0%
- inhibition (INH) (Rattus norvegicus [2]): 41.8%
- inhibition (INH) (Rattus norvegicus [3]): 0%
- inhibition (INH) (Rattus norvegicus [4]): 27.7%

SMILES: COc1ccc(-n2cc(-c3ccccc3)c3c(N/N=C/c4ccccc4)ncnc32)cc1
- inhibition (INH) (Rattus norvegicus [1]): 23.04%
- inhibition (INH) (Rattus norvegicus [2]): 66.19%
- inhibition (INH) (Rattus norvegicus [3]): 30.77%
- inhibition (INH) (Rattus norvegicus [4]): 62.68%

SMILES: Cc1ccc(-n2c(-c3ccccc3)c(-c3ccccc3)c3c2ncn2nnnc32)cc1
- inhibition (INH) (Rattus norvegicus [1]): 5.65%
- inhibition (INH) (Rattus norvegicus [2]): 31.59%
- inhibition (INH) (Rattus norvegicus [3]): 11.54%
- inhibition (INH) (Rattus norvegicus [4]): 26.83%

SMILES: COc1ccc(-n2c(-c3ccccc3)c(-c3ccccc3)c3c2ncn2nnnc32)cc1
- inhibition (INH) (Rattus norvegicus [1]): 0%
- inhibition (INH) (Rattus norvegicus [2]): 39.21%
- inhibition (INH) (Rattus norvegicus [3]): 0%
- inhibition (INH) (Rattus norvegicus [4]): 19.7%

SMILES: COc1ccc(-n2c(-c3ccccc3)c(-c3ccccc3)c3c(-n4nc(C)cc4C)ncnc32)cc1
- inhibition (INH) (Rattus norvegicus [1]): 0%
- inhibition (INH) (Rattus norvegicus [2]): 74.6%
- inhibition (INH) (Rattus norvegicus [3]): 6.41%
- inhibition (INH) (Rattus norvegicus [4]): 63.24%

SMILES: Cc1ccc(-n2cc(-c3ccccc3)c3c(-n4nc(C)cc4C)ncnc32)cc1
- inhibition (INH) (Rattus norvegicus [1]): 8.7%
- inhibition (INH) (Rattus norvegicus [2]): 59.25%
- inhibition (INH) (Rattus norvegicus [3]): 2.56%
- inhibition (INH) (Rattus norvegicus [4]): 31.37%

SMILES: Cc1ccc(-n2c3c(c(-c4ccccc4)c2-c2ccccc2)C2=NNC(=O)CN2C=N3)cc1
- inhibition (INH) (Rattus norvegicus [1]): 17.39%
- inhibition (INH) (Rattus norvegicus [2]): 34.92%
- inhibition (INH) (Rattus norvegicus [3]): 23.08%
- inhibition (INH) (Rattus norvegicus [4]): 28.31%

SMILES: COc1ccc(-n2c3c(c(-c4ccccc4)c2-c2ccccc2)C2=NNC(=O)CN2C=N3)cc1
- inhibition (INH) (Rattus norvegicus [1]): 0%
- inhibition (INH) (Rattus norvegicus [2]): 32.8%
- inhibition (INH) (Rattus norvegicus [3]): 0%
- inhibition (INH) (Rattus norvegicus [4]): 15.44%

SMILES: CC(C)Cc1ccc(C(C)C(=O)O)cc1 (stereo unspecified) [IBUPROFEN]
- inhibition in vivo at 70 mg/kg (Rattus norvegicus [5]): 60.7%
- inhibition in vivo at 70 mg/kg (Rattus norvegicus [6]): 69.5%
- inhibition in vivo at 70 mg/kg (Rattus norvegicus [7]): 45%
- inhibition in vivo at 70 mg/kg (Rattus norvegicus [8]): 6.08%
